Laboratory results as given in ChEMBL document CHEMBL1671662, “In vitro activities of telavancin and six comparator agents against anaerobic bacterial isolates” (2009).
In brackets after ≈: the same amount, converted by molar mass.

Assays:
Ruminococcus gnavus = test: Antibacterial activity against Ruminococcus gnavus by CLSI M11-A6 agar dilution method; format: functional; settings: Mediterraneibacter gnavus
Prevotella buccae = test: Antibacterial activity against Prevotella buccae by CLSI M11-A6 agar dilution method; format: functional; settings: Segatella buccae
[1] = system: Ruminococcus flavefaciens; test: Antibacterial activity against Ruminococcus flavefaciens by CLSI M11-A6 agar dilution method; format: functional
Clostridium sp. = test: Antibacterial activity against Clostridium sp. by CLSI M11-A6 agar dilution method; format: functional
Clostridium scindens = test: Antibacterial activity against Clostridium scindens by CLSI M11-A6 agar dilution method; format: functional
[2] = system: Parabacteroides distasonis; test: Antibacterial activity against Parabacteroides distasonis by CLSI M11-A6 agar dilution method; format: functional
[3] = system: Enterocloster clostridioformis; test: Antibacterial activity against Clostridium clostridioforme by CLSI M11-A6 agar dilution method; format: functional
Blautia luti = test: Antibacterial activity against Ruminococcus luti by CLSI M11-A6 agar dilution method; format: functional
Bilophila wadsworthia = test: Antibacterial activity against Bilophila wadsworthia by CLSI M11-A6 agar dilution method; format: functional
Clostridium beijerinckii = test: Antibacterial activity against Clostridium beijerinckii by CLSI M11-A6 agar dilution method; format: functional
[4] = system: Bifidobacterium pseudolongum; test: Antibacterial activity against Bifidobacterium pseudolongum by CLSI M11-A6 agar dilution method; format: functional
Anaerococcus tetradius = test: Antibacterial activity against Anaerococcus tetradius by CLSI M11-A6 agar dilution method; format: functional
[5] = system: Bacteroides thetaiotaomicron; test: Antibacterial activity against Bacteroides thetaiotaomicron by CLSI M11-A6 agar dilution method; format: functional
Bifidobacterium longum = test: Antibacterial activity against Bifidobacterium longum by CLSI M11-A6 agar dilution method; format: functional
Actinomyces naeslundii = test: Antibacterial activity against Actinomyces naeslundii by CLSI M11-A6 agar dilution method; format: functional
Parabacteroides merdae = test: Antibacterial activity against Parabacteroides merdae by CLSI M11-A6 agar dilution method; format: functional
Ruminococcus lactaris = test: Antibacterial activity against Ruminococcus lactaris by CLSI M11-A6 agar dilution method; format: functional
[6] = system: Coprobacillus cateniformis; test: Antibacterial activity against Coprobacillus cateniformis by CLSI M11-A6 agar dilution method; format: functional
Prevotella corporis = test: Antibacterial activity against Prevotella corporis by CLSI M11-A6 agar dilution method; format: functional
Streptococcus anginosus = test: Antibacterial activity against Streptococcus anginosus by CLSI M11-A6 agar dilution method; format: functional
Hoylesella oralis = test: Antibacterial activity against Prevotella oralis by CLSI M11-A6 agar dilution method; format: functional
Bifidobacterium dentium = test: Antibacterial activity against Bifidobacterium dentium by CLSI M11-A6 agar dilution method; format: functional
Fusobacterium mortiferum = test: Antibacterial activity against Fusobacterium mortiferum by CLSI M11-A6 agar dilution method; format: functional
Anaerococcus prevotii = test: Antibacterial activity against Anaerococcus prevotii by CLSI M11-A6 agar dilution method; format: functional
Clostridium disporicum = test: Antibacterial activity against Clostridium disporicum by CLSI M11-A6 agar dilution method; format: functional
[7] = system: Bifidobacterium adolescentis; test: Antibacterial activity against Bifidobacterium adolescentis by CLSI M11-A6 agar dilution method; format: functional
[8] = Antibacterial activity against Bifidobacterium infantis by CLSI M11-A6 agar dilution method; format: functional, Bifidobacterium longum subsp. infantis; settings: Bifidobacterium longum
Clostridium spiroforme = test: Antibacterial activity against Clostridium spiroforme by CLSI M11-A6 agar dilution method; format: functional; settings: Thomasclavelia spiroformis
[9] = system: Clostridium sporosphaeroides; test: Antibacterial activity against Clostridium sporosphaeroides by CLSI M11-A6 agar dilution method; format: functional; settings: Faecalispora sporosphaeroides
Bifidobacterium bifidum = test: Antibacterial activity against Bifidobacterium bifidum by CLSI M11-A6 agar dilution method; format: functional
Clostridium bartlettii = test: Antibacterial activity against Clostridium bartlettii by CLSI M11-A6 agar dilution method; format: functional; settings: Intestinibacter bartlettii
Ruminococcus torques = test: Antibacterial activity against Ruminococcus torques by CLSI M11-A6 agar dilution method; format: functional; settings: Mediterraneibacter torques
Clostridium glycolicum = test: Antibacterial activity against Clostridium glycolicum by CLSI M11-A6 agar dilution method; format: functional; settings: Terrisporobacter glycolicus
[10] = system: Paeniclostridium sordellii; test: Antibacterial activity against Clostridium sordellii by CLSI M11-A6 agar dilution method; format: functional; settings: Paraclostridium sordellii
Coriobacterium = test: Antibacterial activity against […] by CLSI M11-A6 agar dilution method; format: functional
Bifidobacterium breve = test: Antibacterial activity against Bifidobacterium breve by CLSI M11-A6 agar dilution method; format: functional
Finegoldia magna = test: Antibacterial activity against Finegoldia magna by CLSI M11-A6 agar dilution method; format: functional
Prevotella denticola = test: Antibacterial activity against Prevotella P denticola by CLSI M11-A6 agar dilution method; format: functional
[Clostridium] innocuum = Antibacterial activity against Clostridium innocuum by CLSI M11-A6 agar dilution method; format: functional
[11] = system: Catenibacterium mitsuokai; test: Antibacterial activity against Catenibacterium mitsuokai by CLSI M11-A6 agar dilution method; format: functional
Clostridium leptum = test: Antibacterial activity against Clostridium leptum by CLSI M11-A6 agar dilution method; format: functional
Clostridium subterminale = test: Antibacterial activity against Clostridium subterminale by CLSI M11-A6 agar dilution method; format: functional
Ruminococcus obeum = test: Antibacterial activity against Ruminococcus obeum by CLSI M11-A6 agar dilution method; format: functional; settings: Blautia obeum

In the case of `CCCCCCCCCCNCCN[C@@]1(C)C[C@H](O[C@H]2[C@H](Oc3c4cc5cc3Oc3ccc(cc3Cl)[C@@H](O)[C@@H](NC(=O)[C@@H](CC(C)C)NC)C(=O)N[C@@H](CC(N)=O)C(=O)N[C@H]5C(=O)N[C@H]3C(=O)N[C@H](C(=O)N[C@H](C(=O)O)c5cc(O)c(CNCP(=O)(O)O)c(O)c5-c5cc3ccc5O)[C@H](O)c3ccc(c(Cl)c3)O4)O[C@H](CO)[C@@H](O)[C@@H]2O)O[C@@H](C)[C@H]1O` [TELAVANCIN], the MIC (Ruminococcus gnavus) is reported as at most 0.12 mg/L, the MIC50 (Ruminococcus gnavus) is reported as at most 0.12 mg/L and the MIC90 (Ruminococcus gnavus) is reported as at most 0.12 mg/L. It also gave an MIC50 (Prevotella buccae) of 8 mg/L (≈ 4.56 µM), an MIC90 (Prevotella buccae) of 64 mg/L (≈ 36.5 µM) and an MIC50 [1] of at most 0.12 mg/L. The MIC90 [1] was at most 0.12 mg/L, the MIC50 (Clostridium sp.) was at most 0.12 mg/L and the MIC90 (Clostridium sp.) was 0.25 mg/L (≈ 0.142 µM). It also gave an MIC50 (Clostridium scindens) of at most 0.12 mg/L, an MIC90 (Clostridium scindens) of 0.25 mg/L (≈ 0.142 µM) and an MIC [2] of over 64 mg/L. It also gave an MIC50 [2] of over 64 mg/L, an MIC90 [2] of over 64 mg/L and an MIC50 [3] of 4 mg/L (≈ 2.28 µM). The MIC90 [3] was 8 mg/L (≈ 4.56 µM), the MIC50 (Blautia luti) was at most 0.12 mg/L and the MIC90 (Blautia luti) was at most 0.12 mg/L. It also gave an MIC (Bilophila wadsworthia) of over 64 mg/L, an MIC50 (Bilophila wadsworthia) of over 64 mg/L and an MIC90 (Bilophila wadsworthia) of over 64 mg/L. It also gave an MIC50 (Clostridium beijerinckii) of at most 0.12 mg/L, an MIC90 (Clostridium beijerinckii) of 0.25 mg/L (≈ 0.142 µM) and an MIC50 [4] of at most 0.12 mg/L. For the same compound, the MIC90 [4] was 0.5 mg/L (≈ 0.285 µM), the MIC50 (Anaerococcus tetradius) was at most 0.12 mg/L and the MIC90 (Anaerococcus tetradius) was 0.25 mg/L (≈ 0.142 µM). It also gave an MIC50 [5] of over 64 mg/L, an MIC90 [5] of over 64 mg/L and an MIC50 (Bifidobacterium longum) of at most 0.12 mg/L. It also gave an MIC90 (Bifidobacterium longum) of 0.5 mg/L (≈ 0.285 µM), an MIC50 (Actinomyces naeslundii) of at most 0.12 mg/L and an MIC90 (Actinomyces naeslundii) of 0.5 mg/L (≈ 0.285 µM). The MIC (Parabacteroides merdae) was over 64 mg/L, the MIC50 (Parabacteroides merdae) was over 64 mg/L and the MIC90 (Parabacteroides merdae) was over 64 mg/L. For the same compound, the MIC50 (Ruminococcus lactaris) was at most 0.12 mg/L, the MIC90 (Ruminococcus lactaris) was at most 0.12 mg/L and the MIC50 [6] was at most 0.12 mg/L. The MIC90 [6] was 0.5 mg/L (≈ 0.285 µM), the MIC50 (Prevotella corporis) was 8 mg/L (≈ 4.56 µM) and the MIC90 (Prevotella corporis) was 64 mg/L (≈ 36.5 µM). For the same compound, the MIC50 (Streptococcus anginosus) was at most 0.12 mg/L, the MIC90 (Streptococcus anginosus) was at most 0.12 mg/L and the MIC50 (Hoylesella oralis) was 8 mg/L (≈ 4.56 µM). It also gave an MIC90 (Hoylesella oralis) of 64 mg/L (≈ 36.5 µM), an MIC50 (Bifidobacterium dentium) of at most 0.12 mg/L and an MIC90 (Bifidobacterium dentium) of 0.5 mg/L (≈ 0.285 µM). The MIC50 (Fusobacterium mortiferum) was over 64 mg/L, the MIC90 (Fusobacterium mortiferum) was over 64 mg/L and the MIC50 (Anaerococcus prevotii) was at most 0.12 mg/L. For the same compound, the MIC90 (Anaerococcus prevotii) was 0.25 mg/L (≈ 0.142 µM), the MIC50 (Clostridium disporicum) was at most 0.12 mg/L and the MIC90 (Clostridium disporicum) was 0.25 mg/L (≈ 0.142 µM). For the same compound, the MIC50 [7] was at most 0.12 mg/L, the MIC90 [7] was 0.5 mg/L (≈ 0.285 µM) and the MIC50 [8] was at most 0.12 mg/L. The MIC90 [8] was 0.5 mg/L (≈ 0.285 µM), the MIC50 (Clostridium spiroforme) was at most 0.12 mg/L and the MIC90 (Clostridium spiroforme) was 0.25 mg/L (≈ 0.142 µM). The MIC50 [9] was at most 0.12 mg/L, the MIC90 [9] was 0.25 mg/L (≈ 0.142 µM) and the MIC50 (Bifidobacterium bifidum) was at most 0.12 mg/L. The MIC90 (Bifidobacterium bifidum) was 0.5 mg/L (≈ 0.285 µM), the MIC50 (Clostridium bartlettii) was at most 0.12 mg/L and the MIC90 (Clostridium bartlettii) was 0.25 mg/L (≈ 0.142 µM). It also gave an MIC50 (Ruminococcus torques) of at most 0.12 mg/L, an MIC90 (Ruminococcus torques) of at most 0.12 mg/L and an MIC50 (Clostridium glycolicum) of at most 0.12 mg/L. The MIC90 (Clostridium glycolicum) was 0.25 mg/L (≈ 0.142 µM), the MIC50 [10] was at most 0.12 mg/L and the MIC90 [10] was 0.25 mg/L (≈ 0.142 µM). For the same compound, the MIC50 (Coriobacterium) was at most 0.12 mg/L, the MIC90 (Coriobacterium) was 0.5 mg/L (≈ 0.285 µM) and the MIC50 (Bifidobacterium breve) was at most 0.12 mg/L. It also gave an MIC90 (Bifidobacterium breve) of 0.5 mg/L (≈ 0.285 µM), an MIC50 (Finegoldia magna) of at most 0.12 mg/L and an MIC90 (Finegoldia magna) of 0.25 mg/L (≈ 0.142 µM). For the same compound, the MIC50 (Prevotella denticola) was 8 mg/L (≈ 4.56 µM), the MIC90 (Prevotella denticola) was 64 mg/L (≈ 36.5 µM) and the MIC50 ([Clostridium] innocuum) was 2 mg/L (≈ 1.14 µM). The MIC90 ([Clostridium] innocuum) was 2 mg/L (≈ 1.14 µM), the MIC50 [11] was at most 0.12 mg/L and the MIC90 [11] was 0.5 mg/L (≈ 0.285 µM). For the same compound, the MIC50 (Clostridium leptum) was at most 0.12 mg/L, the MIC90 (Clostridium leptum) was 0.25 mg/L (≈ 0.142 µM) and the MIC (Clostridium subterminale) was at most 0.12 mg/L. The MIC50 (Clostridium subterminale) was at most 0.12 mg/L, the MIC90 (Clostridium subterminale) was at most 0.12 mg/L and the MIC (Ruminococcus obeum) was at most 0.12 mg/L. It also gave an MIC50 (Ruminococcus obeum) of at most 0.12 mg/L and an MIC90 (Ruminococcus obeum) of at most 0.12 mg/L.
